Laboratory results from the NIST ThermoML archive (doi:10.1016/j.jct.2013.09.010).
Where “and” joins values, the source holds several entries; their conditions need not be identical. Identical values can stand only once. ± gives the expanded uncertainty stated by the source.

Key:
[1] = Liquid, Vibrating tube method
[2] = molar heat capacity at constant pressure; conditions: 101 kPa, Liquid, Small sample (50 mg) DSC

CCCC(=O)[O-].C[NH2+]CCO [N-methyl-2-hydroxyethylammonium butanoate]
mass density [kg/m3], [1]
Conditions	298.15 K	308.15 K	318.15 K	328.15 K	338.15 K	348.15 K	358.15 K
100 kPa	1035.29 ± 2	1028.57 ± 2	1021.88 ± 2	1015.21 ± 2	1008.57 ± 2	1001.95 ± 2	995.35 ± 2
5000 kPa	1037.49 ± 2	1030.87 ± 2	1024.28 ± 2	1017.71 ± 2	1011.17 ± 2	1004.66 ± 2	998.16 ± 2
10000 kPa	1039.66 ± 2	1033.14 ± 2	1026.66 ± 2	1020.2 ± 2	1013.77 ± 2	1007.36 ± 2	1000.98 ± 2
15000 kPa	1041.88 ± 2	1035.43 ± 2	1029.02 ± 2	1022.64 ± 2	1016.3 ± 2	1010 ± 2	1003.73 ± 2
20000 kPa	1043.97 ± 2	1037.61 ± 2	1031.28 ± 2	1024.99 ± 2	1018.73 ± 2	1012.5 ± 2	1006.31 ± 2
25000 kPa	1046.02 ± 2	1039.73 ± 2	1033.49 ± 2	1027.31 ± 2	1021.17 ± 2	1015.08 ± 2	1009.04 ± 2

[2]
Conditions	molar heat capacity at constant pressure
286.15 K	357.3 ± 15 J/K/mol
287.15 K	358.4 ± 15 J/K/mol
288.15 K	357 ± 15 J/K/mol
290.15 K	358.9 ± 15 J/K/mol
291.15 K	360.7 ± 15 J/K/mol
292.15 K	356.8 ± 15 J/K/mol
293.15 K	358.6 ± 15 J/K/mol
294.15 K	361 ± 15 J/K/mol and 360.1 ± 15 J/K/mol
295.15 K	358.1 ± 15 J/K/mol and 360.9 ± 15 J/K/mol
296.15 K	361.7 ± 15 J/K/mol and 357.1 ± 15 J/K/mol
297.15 K	362.7 ± 15 J/K/mol and 358.9 ± 15 J/K/mol
298.15 K	363.2 ± 15 J/K/mol and 359.6 ± 15 J/K/mol
299.15 K	364 ± 15 J/K/mol and 360.7 ± 15 J/K/mol
300.15 K	364.6 ± 16 J/K/mol and 361.2 ± 15 J/K/mol
301.15 K	361.7 ± 15 J/K/mol and 365.3 ± 16 J/K/mol
302.15 K	362.2 ± 15 J/K/mol and 365.8 ± 16 J/K/mol
303.15 K	362.3 ± 15 J/K/mol and 366.4 ± 16 J/K/mol
304.15 K	362.8 ± 15 J/K/mol and 367.1 ± 16 J/K/mol
305.15 K	363.3 ± 15 J/K/mol and 367.6 ± 16 J/K/mol
306.15 K	363.8 ± 15 J/K/mol and 368 ± 16 J/K/mol
307.15 K	364.3 ± 16 J/K/mol and 368.5 ± 16 J/K/mol
308.15 K	364.8 ± 16 J/K/mol and 368.9 ± 16 J/K/mol
309.15 K	364.9 ± 16 J/K/mol and 369.4 ± 16 J/K/mol
310.15 K	365.4 ± 16 J/K/mol and 369.7 ± 16 J/K/mol
311.15 K	365.8 ± 16 J/K/mol and 370.3 ± 16 J/K/mol
312.15 K	366.4 ± 16 J/K/mol and 370.8 ± 16 J/K/mol
313.15 K	367.2 ± 16 J/K/mol and 371.5 ± 16 J/K/mol
314.15 K	368 ± 16 J/K/mol and 372.1 ± 16 J/K/mol
315.15 K	368.7 ± 16 J/K/mol and 372.8 ± 16 J/K/mol
316.15 K	369.2 ± 16 J/K/mol and 373.6 ± 16 J/K/mol
317.15 K	369.5 ± 16 J/K/mol and 374.3 ± 16 J/K/mol
318.15 K	369.7 ± 16 J/K/mol and 374.7 ± 16 J/K/mol
319.15 K	370 ± 16 J/K/mol and 375.4 ± 16 J/K/mol
320.15 K	370.2 ± 16 J/K/mol and 375.7 ± 16 J/K/mol
321.15 K	370.7 ± 16 J/K/mol and 376.2 ± 16 J/K/mol
322.15 K	371.2 ± 16 J/K/mol and 376.9 ± 16 J/K/mol
323.15 K	371.5 ± 16 J/K/mol and 377.5 ± 16 J/K/mol
324.15 K	372.1 ± 16 J/K/mol and 378.2 ± 16 J/K/mol
325.15 K	372.8 ± 16 J/K/mol and 378.7 ± 16 J/K/mol
326.15 K	373.8 ± 16 J/K/mol and 379.3 ± 16 J/K/mol
327.15 K	374.7 ± 16 J/K/mol and 380.1 ± 16 J/K/mol
328.15 K	375.4 ± 16 J/K/mol and 380.6 ± 16 J/K/mol
329.15 K	375.7 ± 16 J/K/mol and 381.3 ± 16 J/K/mol
330.15 K	375.6 ± 16 J/K/mol and 381.8 ± 16 J/K/mol
331.15 K	375.4 ± 16 J/K/mol and 382.1 ± 16 J/K/mol
332.15 K	375.2 ± 16 J/K/mol and 382.9 ± 16 J/K/mol
333.15 K	374.9 ± 16 J/K/mol and 383.1 ± 16 J/K/mol
334.15 K	375.2 ± 16 J/K/mol and 383.9 ± 16 J/K/mol
335.15 K	375.7 ± 16 J/K/mol and 384.7 ± 16 J/K/mol
336.15 K	377.2 ± 16 J/K/mol
